Test results as given in ChEMBL document CHEMBL1201862, “PubChem BioAssay data set” (2004).
Calls of active or inactive are those of the source.

Experiments:
Type in all cases: functional
[1] = molecular target: cAMP-dependent protein kinase catalytic subunit alpha (Homo sapiens, UniProt P17612)
[2] = molecular target: Dual specificity tyrosine-phosphorylation-regulated kinase 1B (Homo sapiens, UniProt Q9Y463); experiment: Navigating the Kinome. Panel member name: DYRK1B
[3] = molecular target: Glycogen synthase kinase-3 beta (Homo sapiens, UniProt P49841);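 note: value comes from a broad kinome profiling panel, with GSK3B as the panel member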
[4] = molecular target: Mitogen-activated protein kinase 9 (Homo sapiens, UniProt P45984);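 note: value from a kinome panel profiling assay, MAPK9 panel entry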
[5] = molecular target: Dual specificity mitogen-activated protein kinase kinase 1 (Homo sapiens, UniProt Q02750); experiment: Navigating the Kinome. Panel member name: MAP2K1
[6] = molecular target: High affinity nerve growth factor receptor (Homo sapiens, UniProt P04629);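 note: NTRK1 tested as one member of a kinome-wide profiling panel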
[7] = molecular target: Serine/threonine-protein kinase TAO1 (Homo sapiens, UniProt Q7L7X3)
[8] = molecular target: Protein kinase C theta type (Homo sapiens, UniProt Q04759); experiment: Navigating the Kinome. Panel member name: PRKCQ
[9] = molecular target: Tyrosine-protein kinase JAK3 (Homo sapiens, UniProt P52333)
[10] = molecular target: Dual specificity protein kinase CLK4 (Homo sapiens, UniProt Q9HAZ1)
[11] = molecular target: Receptor-type tyrosine-protein kinase FLT3 (Homo sapiens, UniProt P36888);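 note: FLT3 was tested as one member of a kinome-wide kinase panel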
[12] = molecular target: Serine/threonine-protein kinase Chk1 (Homo sapiens, UniProt O14757);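 note: measured as one member of a kinome-wide kinase profiling panel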
[13] = molecular target: BDNF/NT-3 growth factors receptor (Homo sapiens, UniProt Q16620);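 note: NTRK2 measured as one member of a broad kinome-wide kinase profiling panel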
[14] = molecular target: Dual specificity protein kinase CLK2 (Homo sapiens, UniProt P49760)
[15] = molecular target: Mitogen-activated protein kinase 8 (Homo sapiens, UniProt P45983);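 note: value comes from one member of a kinome-wide kinase profiling panel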
[16] = molecular target: cAMP-dependent protein kinase catalytic subunit PRKX (Homo sapiens, UniProt P51817)
[17] = molecular target: Tyrosine-protein kinase Fyn (Homo sapiens, UniProt P06241)
[18] = molecular target: T1, Sentrin-specific protease 6 (Homo sapiens, UniProt Q9GZR1);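 note: Luminescence-based dose-response confirmatory assay of SENP6 inhibition, following up an ultra-high-throughput screen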
T1 sequence (Q9GZR1 whole entry): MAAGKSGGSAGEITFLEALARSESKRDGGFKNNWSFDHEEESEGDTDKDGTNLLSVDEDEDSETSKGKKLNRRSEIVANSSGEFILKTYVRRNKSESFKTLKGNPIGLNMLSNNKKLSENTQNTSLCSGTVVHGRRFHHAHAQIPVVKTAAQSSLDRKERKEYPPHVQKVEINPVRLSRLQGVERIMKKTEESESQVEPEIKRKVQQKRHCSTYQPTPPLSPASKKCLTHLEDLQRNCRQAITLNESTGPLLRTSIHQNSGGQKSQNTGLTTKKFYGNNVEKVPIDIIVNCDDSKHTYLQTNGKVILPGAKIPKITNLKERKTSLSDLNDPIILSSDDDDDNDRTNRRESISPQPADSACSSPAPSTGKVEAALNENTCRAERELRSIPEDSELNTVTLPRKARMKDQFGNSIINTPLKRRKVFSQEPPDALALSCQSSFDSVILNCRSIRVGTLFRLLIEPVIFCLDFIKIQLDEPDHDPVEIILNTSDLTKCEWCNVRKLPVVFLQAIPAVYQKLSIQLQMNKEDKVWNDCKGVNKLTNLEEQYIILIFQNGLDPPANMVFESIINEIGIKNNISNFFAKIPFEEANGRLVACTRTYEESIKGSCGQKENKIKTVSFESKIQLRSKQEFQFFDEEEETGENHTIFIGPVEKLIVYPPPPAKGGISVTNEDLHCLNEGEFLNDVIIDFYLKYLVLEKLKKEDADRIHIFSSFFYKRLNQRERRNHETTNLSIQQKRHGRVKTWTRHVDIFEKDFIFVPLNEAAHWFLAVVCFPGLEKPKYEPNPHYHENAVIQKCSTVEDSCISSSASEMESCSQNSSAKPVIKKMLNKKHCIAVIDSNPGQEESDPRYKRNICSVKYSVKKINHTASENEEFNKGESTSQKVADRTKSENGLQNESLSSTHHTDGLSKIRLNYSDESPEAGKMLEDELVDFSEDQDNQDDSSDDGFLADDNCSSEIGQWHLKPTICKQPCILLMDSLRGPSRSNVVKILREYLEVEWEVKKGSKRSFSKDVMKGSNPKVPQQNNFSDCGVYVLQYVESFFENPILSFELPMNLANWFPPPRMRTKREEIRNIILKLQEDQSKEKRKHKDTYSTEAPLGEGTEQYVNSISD

[19] = molecular target: T2, Orexin/Hypocretin receptor type 1 (Homo sapiens, UniProt O43613); experiment: Homogeneous Time Resolved Fluorescence (HTRF)-based cell-based high throughput dose response assay for antagonists of the orexin 1 receptor (OX1R; HCRTR1). [Related pubchem assays (depositor defined):AID434989, AID435008, AID463079, AID485270, AID492963, AID492964, AID492965, AID493232, AID504717, AID504718];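 note: antagonism measured against Orexin-A challenge at about its EC80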
T2 sequence (O43613 whole entry): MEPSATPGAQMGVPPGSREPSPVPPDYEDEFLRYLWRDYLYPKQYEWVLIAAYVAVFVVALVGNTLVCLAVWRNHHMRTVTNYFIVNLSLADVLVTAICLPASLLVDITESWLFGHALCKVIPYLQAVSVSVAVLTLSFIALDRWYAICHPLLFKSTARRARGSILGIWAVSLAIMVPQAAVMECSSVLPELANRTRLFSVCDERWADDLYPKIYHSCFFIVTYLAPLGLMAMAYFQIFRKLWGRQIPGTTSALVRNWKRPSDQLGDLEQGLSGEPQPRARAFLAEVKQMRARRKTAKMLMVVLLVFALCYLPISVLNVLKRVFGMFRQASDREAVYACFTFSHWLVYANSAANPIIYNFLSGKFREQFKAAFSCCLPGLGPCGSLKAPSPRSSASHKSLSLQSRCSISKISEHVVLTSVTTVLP

Caspase-3 = molecular target: T3, Caspase-3 (Homo sapiens, UniProt P42574);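 note: Dose-response selectivity test against caspase-3 for candidate inhibitors of sentrin-specific proteases (SENPs)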
T3 sequence (P42574 whole entry): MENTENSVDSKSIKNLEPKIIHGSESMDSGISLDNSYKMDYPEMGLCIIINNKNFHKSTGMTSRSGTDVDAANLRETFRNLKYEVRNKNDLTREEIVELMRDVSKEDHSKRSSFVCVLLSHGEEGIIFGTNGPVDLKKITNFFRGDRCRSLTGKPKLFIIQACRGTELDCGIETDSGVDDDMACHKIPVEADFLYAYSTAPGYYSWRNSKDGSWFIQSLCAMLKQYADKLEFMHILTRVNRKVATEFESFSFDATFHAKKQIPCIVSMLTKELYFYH

Serine/threonine-protein kinase TAO1, sequence (Q7L7X3 whole entry): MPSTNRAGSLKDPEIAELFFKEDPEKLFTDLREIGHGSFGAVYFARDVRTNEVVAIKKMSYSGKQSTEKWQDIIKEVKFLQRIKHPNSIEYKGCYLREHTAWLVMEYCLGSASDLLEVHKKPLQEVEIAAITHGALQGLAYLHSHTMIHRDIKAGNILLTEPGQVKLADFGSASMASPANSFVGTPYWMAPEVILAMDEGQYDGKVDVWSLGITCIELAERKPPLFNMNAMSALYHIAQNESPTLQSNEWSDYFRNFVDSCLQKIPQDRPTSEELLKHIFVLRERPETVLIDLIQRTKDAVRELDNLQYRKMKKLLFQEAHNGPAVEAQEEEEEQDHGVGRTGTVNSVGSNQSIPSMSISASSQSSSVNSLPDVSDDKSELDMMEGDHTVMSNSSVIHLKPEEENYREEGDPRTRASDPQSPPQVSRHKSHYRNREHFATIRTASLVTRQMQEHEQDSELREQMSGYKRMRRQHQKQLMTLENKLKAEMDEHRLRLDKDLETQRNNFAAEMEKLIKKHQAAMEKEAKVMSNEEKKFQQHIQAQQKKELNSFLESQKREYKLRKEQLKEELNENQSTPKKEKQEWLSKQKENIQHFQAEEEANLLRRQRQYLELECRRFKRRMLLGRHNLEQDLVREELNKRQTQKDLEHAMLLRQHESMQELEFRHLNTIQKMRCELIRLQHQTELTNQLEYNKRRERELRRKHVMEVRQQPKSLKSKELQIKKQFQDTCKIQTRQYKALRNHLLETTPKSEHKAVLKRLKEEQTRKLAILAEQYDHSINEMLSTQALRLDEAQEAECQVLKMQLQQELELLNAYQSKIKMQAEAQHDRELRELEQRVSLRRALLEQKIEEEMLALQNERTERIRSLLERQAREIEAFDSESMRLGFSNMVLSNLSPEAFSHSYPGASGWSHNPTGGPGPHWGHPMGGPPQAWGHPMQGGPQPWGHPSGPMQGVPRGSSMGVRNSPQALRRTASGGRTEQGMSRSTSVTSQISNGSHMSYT
Dual specificity protein kinase CLK4, sequence (Q9HAZ1 whole entry): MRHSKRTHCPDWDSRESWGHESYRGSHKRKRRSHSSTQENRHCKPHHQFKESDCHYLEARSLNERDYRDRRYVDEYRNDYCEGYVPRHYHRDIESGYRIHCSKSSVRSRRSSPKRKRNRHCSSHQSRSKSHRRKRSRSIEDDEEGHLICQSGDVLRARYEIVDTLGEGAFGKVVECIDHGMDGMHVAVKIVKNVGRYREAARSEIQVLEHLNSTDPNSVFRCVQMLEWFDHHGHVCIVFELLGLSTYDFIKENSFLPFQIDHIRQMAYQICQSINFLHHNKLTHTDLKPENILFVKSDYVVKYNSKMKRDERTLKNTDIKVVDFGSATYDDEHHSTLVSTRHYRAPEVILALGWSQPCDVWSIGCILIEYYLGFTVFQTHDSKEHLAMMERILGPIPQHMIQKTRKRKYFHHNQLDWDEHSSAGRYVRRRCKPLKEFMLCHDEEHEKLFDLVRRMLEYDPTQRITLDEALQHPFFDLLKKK
Mitogen-activated protein kinase 9, sequence (P45984 whole entry): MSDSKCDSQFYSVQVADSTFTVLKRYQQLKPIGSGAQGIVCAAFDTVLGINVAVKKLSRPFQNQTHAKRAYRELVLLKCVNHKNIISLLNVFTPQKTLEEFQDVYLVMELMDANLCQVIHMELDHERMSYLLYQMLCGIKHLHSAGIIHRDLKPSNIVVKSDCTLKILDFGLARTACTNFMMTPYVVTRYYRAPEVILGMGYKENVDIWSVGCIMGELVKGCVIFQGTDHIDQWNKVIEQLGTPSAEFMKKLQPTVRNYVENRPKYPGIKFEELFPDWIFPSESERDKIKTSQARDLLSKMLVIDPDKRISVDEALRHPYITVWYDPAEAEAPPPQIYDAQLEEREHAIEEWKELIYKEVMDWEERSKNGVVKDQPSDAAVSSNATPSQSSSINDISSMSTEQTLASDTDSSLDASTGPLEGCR
Receptor-type tyrosine-protein kinase FLT3, sequence (P36888 whole entry): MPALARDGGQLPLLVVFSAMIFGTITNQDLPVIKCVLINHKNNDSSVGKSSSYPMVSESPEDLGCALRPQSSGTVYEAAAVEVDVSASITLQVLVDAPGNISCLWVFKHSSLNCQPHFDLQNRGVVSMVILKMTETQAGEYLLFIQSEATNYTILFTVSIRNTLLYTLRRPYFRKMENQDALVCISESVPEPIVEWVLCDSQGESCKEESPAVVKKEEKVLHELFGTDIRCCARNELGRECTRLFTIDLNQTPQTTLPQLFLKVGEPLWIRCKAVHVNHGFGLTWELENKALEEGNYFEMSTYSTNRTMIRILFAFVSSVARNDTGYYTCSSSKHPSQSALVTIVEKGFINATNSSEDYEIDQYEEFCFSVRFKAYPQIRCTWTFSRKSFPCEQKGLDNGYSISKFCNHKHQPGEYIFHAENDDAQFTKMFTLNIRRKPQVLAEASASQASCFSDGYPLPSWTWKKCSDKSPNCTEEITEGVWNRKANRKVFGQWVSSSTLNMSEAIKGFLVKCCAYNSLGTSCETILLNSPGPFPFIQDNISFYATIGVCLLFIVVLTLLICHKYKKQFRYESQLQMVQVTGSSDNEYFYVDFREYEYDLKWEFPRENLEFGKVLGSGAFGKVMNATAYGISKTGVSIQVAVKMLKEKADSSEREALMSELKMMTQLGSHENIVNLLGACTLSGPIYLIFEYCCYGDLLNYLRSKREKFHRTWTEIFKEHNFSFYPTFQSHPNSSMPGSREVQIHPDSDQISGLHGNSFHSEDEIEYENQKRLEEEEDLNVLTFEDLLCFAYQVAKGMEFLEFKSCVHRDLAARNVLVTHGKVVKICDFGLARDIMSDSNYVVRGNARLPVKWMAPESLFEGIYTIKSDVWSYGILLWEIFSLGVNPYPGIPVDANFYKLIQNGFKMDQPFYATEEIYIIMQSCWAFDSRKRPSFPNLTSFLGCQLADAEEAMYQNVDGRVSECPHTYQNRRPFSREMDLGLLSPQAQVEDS
BDNF/NT-3 growth factors receptor, sequence (Q16620 whole entry): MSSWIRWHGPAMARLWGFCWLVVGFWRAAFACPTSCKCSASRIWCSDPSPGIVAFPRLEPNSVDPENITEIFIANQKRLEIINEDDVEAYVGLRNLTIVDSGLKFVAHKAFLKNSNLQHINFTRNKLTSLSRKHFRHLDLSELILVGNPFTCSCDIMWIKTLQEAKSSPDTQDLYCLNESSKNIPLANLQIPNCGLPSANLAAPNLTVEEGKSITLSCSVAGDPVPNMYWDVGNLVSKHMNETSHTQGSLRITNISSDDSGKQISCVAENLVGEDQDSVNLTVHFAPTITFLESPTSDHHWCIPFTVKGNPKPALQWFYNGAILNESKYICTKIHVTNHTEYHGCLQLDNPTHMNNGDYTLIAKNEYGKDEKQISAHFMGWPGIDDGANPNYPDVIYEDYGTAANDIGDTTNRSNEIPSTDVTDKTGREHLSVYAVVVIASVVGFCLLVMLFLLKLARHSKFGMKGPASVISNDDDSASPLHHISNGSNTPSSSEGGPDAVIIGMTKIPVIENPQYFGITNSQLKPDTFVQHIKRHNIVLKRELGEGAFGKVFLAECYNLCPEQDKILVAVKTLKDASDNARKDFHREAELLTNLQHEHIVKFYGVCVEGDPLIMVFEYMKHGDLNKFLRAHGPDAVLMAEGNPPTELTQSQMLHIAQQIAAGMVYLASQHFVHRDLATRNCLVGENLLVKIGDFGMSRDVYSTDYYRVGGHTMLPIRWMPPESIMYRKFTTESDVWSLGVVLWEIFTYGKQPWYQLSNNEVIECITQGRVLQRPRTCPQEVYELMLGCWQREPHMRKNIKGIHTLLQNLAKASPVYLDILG
Dual specificity protein kinase CLK2, sequence (P49760 whole entry): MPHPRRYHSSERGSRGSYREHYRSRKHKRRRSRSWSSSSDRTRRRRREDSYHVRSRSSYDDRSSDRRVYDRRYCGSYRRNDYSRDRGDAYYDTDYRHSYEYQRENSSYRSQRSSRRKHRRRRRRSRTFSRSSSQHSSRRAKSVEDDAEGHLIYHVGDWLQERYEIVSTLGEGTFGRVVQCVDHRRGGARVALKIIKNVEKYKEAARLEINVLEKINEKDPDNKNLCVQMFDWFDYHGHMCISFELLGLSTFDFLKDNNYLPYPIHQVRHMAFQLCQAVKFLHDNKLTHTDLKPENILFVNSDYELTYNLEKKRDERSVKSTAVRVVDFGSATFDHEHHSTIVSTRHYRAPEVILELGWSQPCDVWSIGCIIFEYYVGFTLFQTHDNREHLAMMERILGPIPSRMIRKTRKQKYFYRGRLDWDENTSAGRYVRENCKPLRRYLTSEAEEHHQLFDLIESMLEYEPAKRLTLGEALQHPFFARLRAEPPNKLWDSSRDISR
Dual specificity mitogen-activated protein kinase kinase 1, sequence (Q02750 whole entry): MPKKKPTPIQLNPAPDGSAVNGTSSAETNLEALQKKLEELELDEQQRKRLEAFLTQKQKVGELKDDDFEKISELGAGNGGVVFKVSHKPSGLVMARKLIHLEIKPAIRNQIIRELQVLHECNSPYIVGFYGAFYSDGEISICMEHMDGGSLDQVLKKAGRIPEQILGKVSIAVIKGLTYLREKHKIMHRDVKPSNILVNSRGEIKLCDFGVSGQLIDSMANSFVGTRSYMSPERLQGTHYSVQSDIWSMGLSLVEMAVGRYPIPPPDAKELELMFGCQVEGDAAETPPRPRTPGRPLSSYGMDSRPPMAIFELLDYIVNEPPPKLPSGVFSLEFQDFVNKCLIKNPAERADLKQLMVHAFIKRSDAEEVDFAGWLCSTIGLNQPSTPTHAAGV
cAMP-dependent protein kinase catalytic subunit PRKX, sequence (P51817 whole entry): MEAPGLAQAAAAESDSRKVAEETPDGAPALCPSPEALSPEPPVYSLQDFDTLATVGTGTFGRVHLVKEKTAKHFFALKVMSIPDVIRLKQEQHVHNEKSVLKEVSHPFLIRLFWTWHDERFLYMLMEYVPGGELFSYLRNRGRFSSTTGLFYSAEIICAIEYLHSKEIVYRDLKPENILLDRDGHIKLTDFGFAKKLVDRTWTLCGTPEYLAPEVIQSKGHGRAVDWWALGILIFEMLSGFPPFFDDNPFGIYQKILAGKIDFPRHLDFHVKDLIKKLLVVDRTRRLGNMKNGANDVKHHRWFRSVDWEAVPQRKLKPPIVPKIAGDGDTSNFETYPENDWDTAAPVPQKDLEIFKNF

Ki [1]	Ki [2]	Ki [3]	Ki [4]	Ki [5]	Ki [6]	Ki [7]	Ki [8]	Ki [9]	Ki [10]	Ki [11]	Ki [12]	Ki [13]	Ki [14]	Ki [15]	Ki [16]	Ki [17]	SMILES	IC50 [18]	IC50 [19]	IC50 (Caspase-3)
0.0631 µM (active)	0.0398 µM (active)	3.16 µM (active)	> 3.98 µM (inactive)	2.51 µM (active)	> 3.16 µM (inactive)	> 6.31 µM (inactive)	> 2.51 µM (inactive)	> 5.01 µM (inactive)	0.0158 µM (active)	> 3.16 µM (inactive)	2 µM (active)	> 3.98 µM (inactive)	0.501 µM (active)	3.98 µM (active)	0.158 µM (active)	> 6.31 µM (inactive)	O=C(NCCc1cccs1)N1CC=C(c2c[nH]c3ncccc23)CC1	–	–	–
–	–	–	–	–	–	–	–	–	–	–	–	–	–	–	–	–	Cc1ccnc2ccc(-c3nc4ccccc4o3)cc12	3.65 µM (active)	1.1 µM (active)	5.31 µM (active)
